{
  "source": "paper PMC5653977",
  "about": "(EMBO Molecular Medicine, 2017)",
  "key": {"PC12 cells": {"test_system": "PC12 cells", "test": "Renilla luciferase readings as toxicity control in dose-response assay", "format": "cell-based", "details": "dose-response co-culture assay, Nrg1 type I β1a, 24 h", "text": "For our HTS‐compatible split TEV assay approach, human full‐length ERBB4‐Cyt1 was fused to the NTEV fragment, a TEV protease cleavage site (tevS) and the artificial co‐transcriptional activator Gal4‐VP16 (ERBB4‐NTEV‐tevS‐GV); human PIK3R1 was fused to the CTEV fragment (PIK3R1‐CTEV) (Fig 1A). Upon ERBB4 activation, PIK3R1 is recruited to the receptor resulting in a reconstituted protease activity that cleaves off GV. In turn, released GV translocates to the nucleus and binds to upstream activating sequences (UAS) to activate the transcription of a firefly luciferase reporter gene (Fig 1A). A constitutively expressed Renilla luciferase driven under the control of the human thymidine kinase (TK) promoter was used as control to address off‐target effects related to toxicity."}, "Nrg1-tg and wt mice [1]": {"test_system": "Nrg1-tg and wt mice", "test": "Prepulse inhibition (PPI)", "format": "in vivo, mouse", "method": "(§1) For behavioral testing, age‐matched male mice (8–16 weeks) on C57Bl/6 background that constitutively overexpress the 2xHA‐tagged Nrg1 type III β1a isoform (Nrg1‐tg) under the control of the mouse Thy1.2 promoter (Velanac et al, 2012) and their wild‐type (wt) littermates as controls were used. Animals were group‐housed in the same ventilated sound‐attenuated rooms under a 12‐h light/12‐h dark schedule (lights on at 8:00 am) at an ambient temperature of 21°C with food and water available ad libitum. One week prior to experiments, mice were separated into single cages and habituated to the experimental rooms. To minimize the influence of the circadian rhythm on drug actions, the treatment groups were analyzed at balanced time points during the light phase. […] All animal experiments were conducted in accordance with NIH principles of laboratory animal care and were approved by the Government of Lower Saxony, Germany, in accordance with the German Animal Protection Law.\n(§2) Treatment was continued throughout the behavioral analysis period. To avoid injection‐induced stress prior to behavioral testing, mice were injected in the afternoon, after the entire cohort has completed the behavioral paradigm.\nThe startle response was measured using a two test cabinet (SR‐LAB, San Diego Instruments) using a protocol as described in Brzózka et al (2010)."}, "[2]": {"details": "mouse, in vivo", "method": "as §2"}, "[3]": {"target": "ERBB2-NTEV-tevS-GV + ERBB2-CTEV (Homo sapiens, UniProt P04626)", "test": "ERBB dimerization split TEV assay ERBB2/ERBB2", "format": "cell-based", "details": "10 ng/ml EGFld", "text": "(§3) Gateway recombination cloning (Life Technologies) was applied for generating plasmids. Each ORF cloned was PCR‐amplified using the Pwo proofreading DNA polymerase (Roche) and BP‐recombined into the pDONR/Zeo plasmid (Life Technologies) to yield an entry vector, which was control‐digested using BsrGI to release the insert, and sequence‐verified. The following human ORFs were cloned using cDNA image clones ordered from Source BioScience: ERBB4 transcript variant JM‐a/CYT‐1 (Accession: BC112199), PIK3R1 (BC094795), GRB2 transcript variant 1 (BC000631), SHC1 transcript variant 2 (BC014158), STAT5A (BC027036), and SRC transcription variant 1 (BC051270). For EGFR, ERBB2, and ERBB3, entry vectors were obtained from the human CCSB kinase collection available from Addgene (Johannessen et al, 2010). Entry vectors were LR‐recombined into split TEV destination vectors [either pcDNA_attR1‐ORF‐attR2‐NTEV‐tevS‐GV‐2xHA_DEST or pTag4C_attR1‐ORF‐attR2‐CTEV‐2xHA_DEST, plasmids were described in detail before (Wehr et al, 2006)] to yield expression vectors, which were control‐digested using BsrGI. The plasmids for Nrg1 type I β1a and rat Nrg1 type III β1a have been described before (Wehr et al, 2006)."}, "TEV protease": {"target": "T1, TEV protease (Tobacco etch virus, UniProt P04517)", "T1 construct": "a transmembrane‐localized TEV protease (TM‐TEV) was expressed in PC12 cells; expressed in transfected cells; host or cells: PC12 Tet-Off cells (rat)", "T1 sequence (P04517 2038-2279)": "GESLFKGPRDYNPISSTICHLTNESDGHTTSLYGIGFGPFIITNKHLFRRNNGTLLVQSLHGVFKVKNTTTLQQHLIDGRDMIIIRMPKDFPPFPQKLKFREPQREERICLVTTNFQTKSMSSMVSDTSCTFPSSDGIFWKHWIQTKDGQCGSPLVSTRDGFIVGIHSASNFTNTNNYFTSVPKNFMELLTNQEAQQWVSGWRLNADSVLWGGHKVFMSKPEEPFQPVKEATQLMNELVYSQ", "test": "TEV protease activity control assay (TM-TEV/TM-tevS-GV)", "format": "cell-based", "details": "TM-TEV, TM-tevS-GV and 10×UAS-Fluc in PC12 cells", "text": "All counts (407 compounds and 96 controls) from the Nrg1‐ERBB4‐PIK3R1 split TEV compound screen were plotted against the z‐score using Mondrian, with pathway activators displaying high values and inhibitors low values. For the secondary analysis, we selected all candidates that were at least three standard deviations away from the mean. […] For the GAL4/UAS assay, GAL4‐VP16 (GV) and 10×UAS firefly luciferase (10×UAS‐Fluc) plasmids were transfected into PC12 cells. For TEV protease activity assays, a transmembrane‐localized TEV protease (TM‐TEV) was expressed in PC12 cells with a transmembrane‐localized and TEV‐cleavable GV (TM‐tevS‐GV) and the 10×UAS‐Fluc reporter. […] EGFld was applied as Nrg1 stimulus. In both control assays, the assay activity (firefly luciferase, black lines) was similar to the toxicity levels (gray lines). Data are shown as mean, a nd error bars represent SEM, n = 6. The insets depict IC50 values in μM."}, "[4]": {"target": "EGFR-NTEV-tevS-GV + ERBB3-CTEV (Homo sapiens, UniProt P00533+P21860)", "sequence (P00533 25-1210)": "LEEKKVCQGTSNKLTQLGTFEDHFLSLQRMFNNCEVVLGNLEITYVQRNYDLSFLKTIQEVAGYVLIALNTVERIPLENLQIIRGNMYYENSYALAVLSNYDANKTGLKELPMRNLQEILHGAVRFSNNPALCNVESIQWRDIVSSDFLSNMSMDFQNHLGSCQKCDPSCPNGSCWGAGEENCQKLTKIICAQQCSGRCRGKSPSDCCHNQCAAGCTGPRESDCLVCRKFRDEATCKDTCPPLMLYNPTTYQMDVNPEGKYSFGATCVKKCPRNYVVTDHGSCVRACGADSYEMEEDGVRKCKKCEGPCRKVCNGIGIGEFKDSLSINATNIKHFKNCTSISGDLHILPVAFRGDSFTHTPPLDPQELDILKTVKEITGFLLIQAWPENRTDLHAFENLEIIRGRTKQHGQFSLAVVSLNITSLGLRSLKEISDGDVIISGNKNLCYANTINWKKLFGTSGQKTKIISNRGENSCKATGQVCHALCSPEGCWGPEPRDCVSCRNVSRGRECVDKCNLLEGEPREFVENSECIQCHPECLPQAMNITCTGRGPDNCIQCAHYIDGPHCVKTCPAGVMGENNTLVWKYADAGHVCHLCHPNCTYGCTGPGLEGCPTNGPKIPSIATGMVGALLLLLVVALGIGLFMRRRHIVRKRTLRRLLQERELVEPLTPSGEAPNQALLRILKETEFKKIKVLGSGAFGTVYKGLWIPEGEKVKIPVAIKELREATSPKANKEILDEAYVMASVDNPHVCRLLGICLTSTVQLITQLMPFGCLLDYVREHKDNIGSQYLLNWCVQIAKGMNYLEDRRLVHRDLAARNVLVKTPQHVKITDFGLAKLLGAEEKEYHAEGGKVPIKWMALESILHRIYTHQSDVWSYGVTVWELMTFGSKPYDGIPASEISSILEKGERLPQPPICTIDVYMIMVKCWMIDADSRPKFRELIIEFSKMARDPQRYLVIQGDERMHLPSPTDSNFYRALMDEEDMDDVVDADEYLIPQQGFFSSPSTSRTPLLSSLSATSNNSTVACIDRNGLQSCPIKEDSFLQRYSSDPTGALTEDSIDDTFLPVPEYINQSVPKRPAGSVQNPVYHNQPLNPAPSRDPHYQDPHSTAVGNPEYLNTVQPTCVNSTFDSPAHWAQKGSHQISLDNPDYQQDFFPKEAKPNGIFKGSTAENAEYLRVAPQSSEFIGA", "sequence (P21860 20-1342)": "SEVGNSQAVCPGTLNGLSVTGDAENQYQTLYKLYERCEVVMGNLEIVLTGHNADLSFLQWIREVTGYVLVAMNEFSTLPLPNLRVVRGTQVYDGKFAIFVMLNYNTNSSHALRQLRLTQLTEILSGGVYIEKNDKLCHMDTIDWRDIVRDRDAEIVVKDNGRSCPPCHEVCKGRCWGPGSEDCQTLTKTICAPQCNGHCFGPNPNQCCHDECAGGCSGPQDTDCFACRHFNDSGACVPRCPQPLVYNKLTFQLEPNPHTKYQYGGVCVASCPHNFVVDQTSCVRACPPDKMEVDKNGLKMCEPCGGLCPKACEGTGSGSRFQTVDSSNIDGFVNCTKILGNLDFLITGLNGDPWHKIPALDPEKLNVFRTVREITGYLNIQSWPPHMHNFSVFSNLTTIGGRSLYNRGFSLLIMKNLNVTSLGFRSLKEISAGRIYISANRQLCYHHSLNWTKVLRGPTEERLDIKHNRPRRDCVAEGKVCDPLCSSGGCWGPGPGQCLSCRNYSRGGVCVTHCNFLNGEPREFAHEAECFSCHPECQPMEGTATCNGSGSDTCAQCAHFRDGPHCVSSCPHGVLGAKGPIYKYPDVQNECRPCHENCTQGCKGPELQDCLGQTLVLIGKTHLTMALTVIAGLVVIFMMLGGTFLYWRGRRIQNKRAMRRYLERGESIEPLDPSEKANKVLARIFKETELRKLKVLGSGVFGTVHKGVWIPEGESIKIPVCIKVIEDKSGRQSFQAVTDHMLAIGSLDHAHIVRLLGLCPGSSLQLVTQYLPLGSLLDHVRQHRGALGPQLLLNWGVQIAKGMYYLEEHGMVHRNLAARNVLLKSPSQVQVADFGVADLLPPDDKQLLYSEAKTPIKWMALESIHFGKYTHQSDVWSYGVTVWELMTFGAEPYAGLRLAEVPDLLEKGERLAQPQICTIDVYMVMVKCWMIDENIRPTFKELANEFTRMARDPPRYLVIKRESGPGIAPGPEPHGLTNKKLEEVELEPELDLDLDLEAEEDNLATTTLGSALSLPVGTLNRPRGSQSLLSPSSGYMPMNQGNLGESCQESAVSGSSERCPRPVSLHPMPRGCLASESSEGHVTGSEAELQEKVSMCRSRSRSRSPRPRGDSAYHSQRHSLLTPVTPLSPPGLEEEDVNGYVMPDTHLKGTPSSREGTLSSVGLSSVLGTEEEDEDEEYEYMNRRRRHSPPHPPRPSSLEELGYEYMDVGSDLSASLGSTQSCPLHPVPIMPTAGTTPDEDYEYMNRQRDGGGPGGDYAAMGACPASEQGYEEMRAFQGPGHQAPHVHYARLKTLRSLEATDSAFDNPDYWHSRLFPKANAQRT", "test": "ERBB dimerization split TEV assay EGFR/ERBB3", "format": "cell-based", "details": "10 ng/ml EGFld", "text": "as §3"}, "Nrg1-tg and wt mice [5]": {"test_system": "Nrg1-tg and wt mice", "test": "Fear conditioning", "format": "in vivo, mouse", "details": "50 mg/kg s.c. daily", "method": "as §1, §2"}, "AKT": {"test_system": "AKT", "test": "Western blot of pAKT in prefrontal cortex of spironolactone-treated mice", "format": "in vivo, mouse", "details": "Nrg1-tg and wt mice, 50 mg/kg s.c. daily for 21 days, prefrontal cortex lysates", "method": "For the generation of lysates, the isolated tissue was immediately placed into cooled (4°C) sucrose buffer (320 mM sucrose, 10 mM Tris–HCl, 1 mM NaHCO3, 1 mM MgCl2, supplemented with 10 mM NaF, 1 mM […], 1 mM ZnCl2, 4.5 mM Na4P20_7 as phosphatase inhibitors, and the complete protease inhibitor cocktail (Roche)), homogenized using an ultra‐turrax (IKA GmbH, Staufen, Germany), sonicated (3 pulses for 10 s), and denatured for 10 min at 70°C in LDS sample buffer.\nEach blot was replicated two times.\nas §2"}, "Nrg1-tg and wt mice [6]": {"test_system": "Nrg1-tg and wt mice", "test": "Hot plate test", "format": "in vivo, mouse", "details": "50 mg/kg s.c. daily", "method": "as §1, §2"}, "[7]": {"parameters": "method as in Wu et al, 2012", "details": "ref Wu et al, 2012; cited from earlier work"}, "[8]": {"target": "ERBB2-NTEV-tevS-GV + ERBB3-CTEV (Homo sapiens, UniProt P04626+P21860)", "sequence (P04626 23-1255)": "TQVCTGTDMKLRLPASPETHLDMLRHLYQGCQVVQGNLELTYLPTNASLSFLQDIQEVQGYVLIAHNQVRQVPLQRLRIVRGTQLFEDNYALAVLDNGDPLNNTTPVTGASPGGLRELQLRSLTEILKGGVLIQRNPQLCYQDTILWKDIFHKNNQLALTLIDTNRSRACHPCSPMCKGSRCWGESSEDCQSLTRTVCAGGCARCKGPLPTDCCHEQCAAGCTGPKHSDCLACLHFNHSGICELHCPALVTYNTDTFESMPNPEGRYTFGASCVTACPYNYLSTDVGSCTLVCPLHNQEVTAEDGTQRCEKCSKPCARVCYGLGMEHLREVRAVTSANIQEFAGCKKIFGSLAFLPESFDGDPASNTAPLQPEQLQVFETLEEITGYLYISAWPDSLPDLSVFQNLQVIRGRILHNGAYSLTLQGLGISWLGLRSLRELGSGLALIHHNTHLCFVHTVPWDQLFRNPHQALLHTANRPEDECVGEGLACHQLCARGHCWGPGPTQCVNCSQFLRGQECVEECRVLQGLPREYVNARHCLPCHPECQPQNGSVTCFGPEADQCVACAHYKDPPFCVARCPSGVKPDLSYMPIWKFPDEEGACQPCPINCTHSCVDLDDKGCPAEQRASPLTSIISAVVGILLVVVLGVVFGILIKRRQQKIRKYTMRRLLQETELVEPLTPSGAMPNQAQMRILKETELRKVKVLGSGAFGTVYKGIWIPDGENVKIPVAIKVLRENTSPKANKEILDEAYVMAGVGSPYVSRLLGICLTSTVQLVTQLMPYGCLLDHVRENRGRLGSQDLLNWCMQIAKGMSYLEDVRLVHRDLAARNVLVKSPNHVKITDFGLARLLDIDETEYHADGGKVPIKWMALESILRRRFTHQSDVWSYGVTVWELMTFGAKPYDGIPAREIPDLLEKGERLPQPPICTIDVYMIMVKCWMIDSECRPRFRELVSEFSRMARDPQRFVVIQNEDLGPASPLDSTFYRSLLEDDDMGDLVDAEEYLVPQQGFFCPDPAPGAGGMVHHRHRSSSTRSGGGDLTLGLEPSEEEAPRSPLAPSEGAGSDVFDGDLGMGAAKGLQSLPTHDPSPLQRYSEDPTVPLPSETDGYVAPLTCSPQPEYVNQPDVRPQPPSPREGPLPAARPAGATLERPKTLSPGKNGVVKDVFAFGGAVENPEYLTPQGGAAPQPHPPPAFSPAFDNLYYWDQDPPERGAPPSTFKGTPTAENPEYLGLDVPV", "sequence (P21860 20-1342)": "as the sequence (P21860 20-1342) above", "test": "ERBB dimerization split TEV assay ERBB2/ERBB3", "format": "cell-based", "details": "10 ng/ml EGFld", "text": "as §3"}, "[9]": {"details": "50 mg/kg s.c. daily for 3 weeks and throughout phenotyping, vs vehicle"}, "[10]": {"details": "before vs after chronic treatment, 50 mg/kg s.c. daily"}},
  "data": [
    {"compound": "CC(=O)S[C@@H]1CC2=CC(=O)CC[C@]2(C)[C@H]2CC[C@@]3(C)[C@@H](CC[C@@]34CCC(=O)O4)[C@H]12", "note": "[Spironolactone]", "values": [
      {"measurement": "toxic effects (reduced Renilla luciferase readings)", "setting": "PC12 cells", "value": "marginal toxic effects at higher concentrations"},
      {"measurement": "PPI in Nrg1-tg mice, four-arm study", "setting": "Nrg1-tg and wt mice [1]; [9]", "value": "significantly enhanced"},
      {"measurement": "PPI in wt mice, four-arm study", "setting": "Nrg1-tg and wt mice [1]; [9]", "value": "did not influence PPI"},
      {"measurement": "PPI in Nrg1-tg mice, pilot two-arm study", "setting": "Nrg1-tg and wt mice [1]; [10]", "value": "significantly improved"},
      {"measurement": "PPI in wt controls, pilot two-arm study", "setting": "Nrg1-tg and wt mice [1]; [10]", "value": "had no effect"},
      {"measurement": "side effect in treated mice", "setting": "[2]", "value": "no major side effect"},
      {"measurement": "IC50", "setting": "[3]", "value": 13.1, "unit": "µM"},
      {"measurement": "effect on activity of the TEV protease", "setting": "TEV protease", "value": "does not affect activities of control assays"},
      {"measurement": "IC50", "setting": "[4]", "value": 2810, "unit": "nM"},
      {"measurement": "cue memory", "setting": "Nrg1-tg and wt mice [5]", "value": "neither genotype nor treatment‐dependent alterations"},
      {"measurement": "freezing in the contextual fear memory test", "setting": "Nrg1-tg and wt mice [5]; Nrg1-tg mice", "value": "non‐significant reduction in freezing"},
      {"measurement": "pAKT (downstream signaling)", "setting": "AKT", "value": "neither modulated by Nrg1 overexpression, nor by spironolactone treatment"},
      {"measurement": "pain sensitivity (latency to the first reaction, hot plate 52°C)", "setting": "Nrg1-tg and wt mice [6]", "value": "significantly decreased levels of pain sensitivity"},
      {"measurement": "motivation and curiosity in mice", "setting": "[7]", "value": "increase motivation and curiosity"},
      {"measurement": "IC50", "setting": "[8]", "value": 9.23, "unit": "µM"}
    ]}
  ]
}
